# In publication PMC9501633, “Synthesis, Characterisation and Mechanism of Action of Anticancer 3-Fluoroazetidin-2-ones” (Pharmaceuticals, 2022):
# Tests used:
# MDA-MB-231 cells = experiment: AlamarBlue cell viability assay; type: cell-based; settings: Homo sapiens, MDA-MB-231, 72 h
# Experimental: The potent 3-fluoro-β-lactam compound 33 synthesised was also evaluated in the triple-negative MDA-MB-231 cell line which lacks expression of the estrogen and progesterone receptors (ER/PR) and the HER2 receptor. […]. Compound 32 was also evaluated in the triple-negative breast cancer cell line Hs578T and its isogenic subclone Hs578T(i)8 (Figure 4C). Hs578Ts(i)8 cells have 2.5-fold more migratory capacity and 3-fold more invasive capacity through the extracellular matrix than the parental cell line (Hs578T) and have 30% more CD44+/CD24-/low cells and in vivo proliferation. […]. […] Cell proliferation for MCF-7 cells was analysed with the AlamarBlue assay (Invitrogen Corp.) as previously described by us. […] Fluorescence results were obtained with a 96-well fluorimeter with excitation at 530 nm and emission at 590 nm with results recorded as percentage viability relative to vehicle control (100%). […]
# Figure 4 Antiproliferative activity of 3-fluoro β-lactams on MCF-7, MDA-MB-231, Hs578T and Hs578T isogenic subclone Hs578T(i)8 breast cancer cells and non-tumourigenic HEK-293T cells. […] Cell viability was expressed as a percentage of vehicle control (ethanol 1% (v/v))-treated cells. […] Cell viability was expressed as a percentage of vehicle control (ethanol 1% (v/v))-treated cells and was measured by AlamarBlue assay (average of three independent experiments). […]
# SW-480 cells = experiment: AlamarBlue cell viability assay; type: cell-based
# Experimental: Compound # (Treatment Concentration µM) […]
# different para-substituent ring B 26-29; 3-fluoro β-lactam compounds containing different meta-substituent ring B 30, 33-35; (B) 3,3-difluoro β-lactam compounds containing different para-substituent ring B 36-39; 3,3-difluoro β-lactam compounds containing different meta-substituent […]
# ring B 40, 42-45 in SW-480 cancer cells.
# Cell proliferation of MCF-7 cells was determined with an alamarBlue assay (seeding density […]
# Compound concentrations of either 10 μM or 1 μM for 72 h were used to treat the cells with control wells containing vehicle ethanol (1%
# MCF-7 cells = experiment: Immunofluorescence confocal microscopy of the microtubule network; type: cell-based, human; settings: MCF-7, 16 h; 33 0.1, 0.5 and 1.0 μM; paclitaxel 1.0 μM; CA-4 0.01 μM
# Experimental: The tubulin-targeting effect of compound 33 on the microtubule network of MCF-7 cells was further evaluated by immunofluorescence studies to identify the cellular effects that are relevant to its mechanism of action by inhibiting the polymerisation of tubulin. […] Treatment of MCF-7 cells with compound 33 (0.1, 0.5 and 1.0 μM) induced cell rounding and distinct abnormalities of the spindle formation as well as a loss of the structured tubulin that impacts the microtubule network structure in a dose-dependent manner.
# Confocal microscopy was used to determine the effects of novel compound 33 and standard drugs on the MCF-7 cytoskeleton according to the protocols we previously described. For the immunofluorescence study, MCF-7 cells were seeded at 1 × 10^5 cells/mL using eight chamber glass slides (BD Biosciences). The cells were treated with vehicle control (1% ethanol (v/v)), CA-4 (0.01 μM), paclitaxel (1 µM) and 33 (0.1 µM, 0.5 µM and 1 µM) for 16 h. The cells were gently washed in PBS, fixed with 4% paraformaldehyde in PBS (20 min) and permeabilised in 0.5% Triton X-100. After further washes in PBS (containing 0.1% Tween (PBST)), cells were blocked with 5% bovine serum albumin which was diluted with PBST. Cells were incubated with mouse monoclonal anti-α-tubulin–FITC antibody (clone DM1A) (Sigma) (1:100) at 20 °C for 2 h and then washed in PBST and incubated with Alexa Fluor 488 dye (1:500) for 1 h at 20 °C. Cells were washed in PBST and mounted in Ultra Cruz Mounting Media (Santa Cruz Biotechnology, Santa Cruz, CA, USA) containing 4,6-diamino-2-phenolindol dihydrochloride (DAPI). The images were captured by Leica SP8 confocal microscopy with Leica Application Suite X software. Experiments were performed on three independent occasions and images were collected on the same day using identical parameters.
# Figure 8 Compound 33 acts as depolymeriser of the microtubule network of MCF-7 breast cancer cells. Cells were treated with vehicle control ([…]), CA-4 (0.01 μM), paclitaxel (1 μM) or compound 33 (0.1, 0.5 and 1 μM) for 16 h. […]
# SK-MEL-2 = experiment: NCI 60 cell line screen, Melanoma; type: cell-based, human; settings: for inhibition at 10 µM / Growth %: one dose 10 µM
# 786–0 = experiment: NCI 60 cell line screen, Renal; type: cell-based, human; settings: for Growth % / inhibition at 10 µM: 786-0, one dose 10 µM
# TK-10 = experiment: NCI 60 cell line screen, Renal; type: cell-based, human; settings: for inhibition at 10 µM / Growth %: one dose 10 µM
# leukaemia panel = experiment: NCI 60 cell line one-dose screen, panel mean; type: cell-based; settings: Homo sapiens, one dose 10 μM, read-out: mean growth inhibition
# Experimental: The antiproliferative effects of selected compounds 33, 37 and 43 were initially evaluated in the NCI 60 cell line screen at 10 μM concentration (see Supplementary Materials Table S3).
# aData obtained from NCI in vitro human tumour cell screen 1 dose assay (10 µM). 33 (NCI
SMILES,IC50 (MDA-MB-231 cells),"cells remaining (SW-480 cells; SW-480, 10 μM, 72 h)",effect on the microtubule network (MCF-7 cells),"TGI (SK-MEL-2; 5-dose, 48 h)","GI50 (SK-MEL-2; Homo sapiens, 5-dose, 48 h)",inhibition at 10 µM (SK-MEL-2; Homo sapiens),Growth % (SK-MEL-2),Growth % (786–0),"TGI (786–0; 786–0, 5-dose, 48 h)",inhibition at 10 µM (786–0; Homo sapiens),"GI50 (786–0; Homo sapiens, 786–0, 5-dose, 48 h)","TGI (TK-10; 5-dose, 48 h)","GI50 (TK-10; Homo sapiens, 5-dose, 48 h)",inhibition at 10 µM (TK-10; Homo sapiens),Growth % (TK-10),inhibition at 10 µM (leukaemia panel),"IC50 (SW-480 cells; Homo sapiens, SW480 cells)"
"COc1ccc(C2C(F)C(=O)N2c2cc(OC)c(OC)c(OC)c2)cc1F (stereo not drawn) [Compound 33, 3-Fluoro-4-(3-fluoro-4-methoxyphenyl)-1-(3,4,5-trimethoxyphenyl)azetidin-2-one]",620 nM,62%,destabilising microtubules,>100000 nM,303 nM,41.2%,58.83%,22.92%,15100 nM,77.1%,46.2 nM,>100000 nM,38600 nM,35.6%,64.4%,90.6%,–
"CCOc1ccc(C2N(c3cc(OC)c(OC)c(OC)c3)C(=O)C2(F)F)cc1 (stereo not drawn) [Compound 37, 4-(4-Ethoxyphenyl)-3,3-difluoro-1-(3,4,5-trimethoxyphenyl)azetidin-2-one]",–,–,–,–,–,8.22%,91.78%,64.68%,–,35.3%,–,–,–,-3.32%,103.32%,91.4%,–
"COc1ccc(/C=C\c2cc(OC)c(OC)c(OC)c2)cc1O [CA-4, combretastatin A-4, reference compound]",43 nM,–,depolymerisation and destabilisation,–,–,–,–,–,–,–,–,–,–,–,–,–,6.3 ± 0.6 nM
"COc1ccc(C2N(c3cc(OC)c(OC)c(OC)c3)C(=O)C2(F)F)cc1F (stereo not drawn) [Compound 43, 3,3-Difluoro-4-(3-fluoro-4-methoxyphenyl)-1-(3,4,5-trimethoxyphenyl)azetidin-2-one]",–,–,–,–,–,15.4%,84.61%,75.35%,–,24.6%,–,–,–,-5.64%,105.64%,86.3%,–
